Reference: ChEMBL document CHEMBL3352218, “Structural basis for inhibition of mycobacterial and human adenosine kinase by 7-substituted 7-(Het)aryl-7-deazaadenine ribonucleosides” (J Med Chem, 2014)
Converted amounts (≈) assume the structure as drawn.

What follows are compounds tested on Mycobacterium tuberculosis (assay: Antimycobacterial activity against multidrug resistant Mycobacterium tuberculosis Praha 131 assessed as microbial growth inhibition incubated for 14 days). Conditions: Praha 131, 336 h.
Type: functional

Compound | MIC
Nc1ncnc2c1c(-c1ccccc1)cn2[C@@H]1O[C@H](CO)[C@@H](O)[C@H]1O | 8 µM (≈ 2.74 µg/mL)
COc1ccc(-c2cn([C@@H]3O[C@H](CO)[C@@H](O)[C@H]3O)c3ncnc(N)c23)cc1 | 16 µM (≈ 5.96 µg/mL)
CSc1ccc(-c2cn([C@@H]3O[C@H](CO)[C@@H](O)[C@H]3O)c3ncnc(N)c23)cc1 | 8 µM (≈ 3.11 µg/mL)
Nc1ncnc2c1c(-c1cccc3ccccc13)cn2[C@@H]1O[C@H](CO)[C@@H](O)[C@H]1O | 32 µM (≈ 12.6 µg/mL)
Nc1ncnc2c1c(-c1ccc3ccccc3c1)cn2[C@@H]1O[C@H](CO)[C@@H](O)[C@H]1O | 4 µM (≈ 1.57 µg/mL)
Nc1ncnc2c1c(-c1ccco1)cn2[C@@H]1O[C@H](CO)[C@@H](O)[C@H]1O | 62.5 µM (≈ 20.8 µg/mL)
Nc1ncnc2c1c(-c1cccs1)cn2[C@@H]1O[C@H](CO)[C@@H](O)[C@H]1O | 8 µM (≈ 2.79 µg/mL)
Nc1ncnc2c1c(-c1ccoc1)cn2[C@@H]1O[C@H](CO)[C@@H](O)[C@H]1O | 16 µM (≈ 5.32 µg/mL)
Nc1ncnc2c1c(-c1ccsc1)cn2[C@@H]1O[C@H](CO)[C@@H](O)[C@H]1O | 8 µM (≈ 2.79 µg/mL)
Nc1ncnc2c1c(-c1cc3ccccc3o1)cn2[C@@H]1O[C@H](CO)[C@@H](O)[C@H]1O | 16 µM (≈ 6.12 µg/mL)
Nc1ncnc2c1c(-c1ccc[nH]1)cn2[C@@H]1O[C@H](CO)[C@@H](O)[C@H]1O | 62.5 µM (≈ 20.7 µg/mL)
Nc1ncnc2c1c(-c1cc[nH]c1)cn2[C@@H]1O[C@H](CO)[C@@H](O)[C@H]1O | 62.5 µM (≈ 20.7 µg/mL)
Nc1ncnc2c1c(-c1cn[nH]c1)cn2[C@@H]1O[C@H](CO)[C@@H](O)[C@H]1O | 125 µM (≈ 41.5 µg/mL)
Nc1ncnc2c1c(-c1cc[nH]n1)cn2[C@@H]1O[C@H](CO)[C@@H](O)[C@H]1O | > 250 µM
C#Cc1cn([C@@H]2O[C@H](CO)[C@@H](O)[C@H]2O)c2ncnc(N)c12 | 8 µM (≈ 2.32 µg/mL)
Nc1ncnc2c1c(-c1c[nH]nn1)cn2[C@@H]1O[C@H](CO)[C@@H](O)[C@H]1O | > 250 µM
Nc1ncnc2c1c(-c1nccs1)cn2[C@@H]1O[C@H](CO)[C@@H](O)[C@H]1O | 125 µM (≈ 43.7 µg/mL)
Nc1ncnc2c1c(-c1c[nH]cn1)cn2[C@@H]1O[C@H](CO)[C@@H](O)[C@H]1O | > 250 µM

Compound | MIC
Nc1ncnc2c1c(-c1ncc[nH]1)cn2[C@@H]1O[C@H](CO)[C@@H](O)[C@H]1O | > 250 µM
Cc1ccc(-c2cn([C@@H]3O[C@H](CO)[C@@H](O)[C@H]3O)c3ncnc(N)c23)cc1C | 8 µM (≈ 2.96 µg/mL)
CC(C)c1cccc(-c2cn([C@@H]3O[C@H](CO)[C@@H](O)[C@H]3O)c3ncnc(N)c23)c1 | 32 µM (≈ 12.3 µg/mL)
CC(C)c1ccc(-c2cn([C@@H]3O[C@H](CO)[C@@H](O)[C@H]3O)c3ncnc(N)c23)cc1 | 16 µM (≈ 6.15 µg/mL)
CC(C)(C)c1ccc(-c2cn([C@@H]3O[C@H](CO)[C@@H](O)[C@H]3O)c3ncnc(N)c23)cc1 | 62.5 µM (≈ 24.9 µg/mL)
Nc1ncnc2c1c(-c1ccc(C(F)(F)F)cc1)cn2[C@@H]1O[C@H](CO)[C@@H](O)[C@H]1O | 4 µM (≈ 1.64 µg/mL)
CC(C)Oc1ccc(-c2cn([C@@H]3O[C@H](CO)[C@@H](O)[C@H]3O)c3ncnc(N)c23)cc1 | 32 µM (≈ 12.8 µg/mL)
Nc1ncnc2c1c(-c1ccc3c(c1)OCO3)cn2[C@@H]1O[C@H](CO)[C@@H](O)[C@H]1O | 8 µM (≈ 3.09 µg/mL)
COc1cc(-c2cn([C@@H]3O[C@H](CO)[C@@H](O)[C@H]3O)c3ncnc(N)c23)cc(OC)c1OC | 8 µM (≈ 3.46 µg/mL)
Nc1ncnc2c1c(-c1ccc3c4c(cccc14)CC3)cn2[C@@H]1O[C@H](CO)[C@@H](O)[C@H]1O | 16 µM (≈ 6.7 µg/mL)
Nc1ncnc2c1c(-c1cc3ccccc3c3ccccc13)cn2[C@@H]1O[C@H](CO)[C@@H](O)[C@H]1O | 32 µM (≈ 14.2 µg/mL)
Nc1ncnc2c1c(-c1cccc3c1oc1ccccc13)cn2[C@@H]1O[C@H](CO)[C@@H](O)[C@H]1O | 4 µM (≈ 1.73 µg/mL)
Nc1ncnc2c1c(-c1cccc3c1Oc1ccccc1S3)cn2[C@@H]1O[C@H](CO)[C@@H](O)[C@H]1O | 16 µM (≈ 7.43 µg/mL)
Nc1ncnc2c1c(-c1cccc3c1Sc1ccccc1S3)cn2[C@@H]1O[C@H](CO)[C@@H](O)[C@H]1O | 125 µM (≈ 60.1 µg/mL)
Nc1ncnc2c1c(/C=C/c1ccccc1)cn2[C@@H]1O[C@H](CO)[C@@H](O)[C@H]1O | 8 µM (≈ 2.95 µg/mL)
Nc1ncnc2c1c(-c1ccc(-c3ccccc3)cc1)cn2[C@@H]1O[C@H](CO)[C@@H](O)[C@H]1O | 4 µM (≈ 1.67 µg/mL)
Nc1ncnc2c1c(-c1ccc(-c3ccc4ccccc4c3)cc1)cn2[C@@H]1O[C@H](CO)[C@@H](O)[C@H]1O | 62.5 µM (≈ 29.3 µg/mL)
Nc1ncnc2c1c(-c1ccc(COc3cccc4ccccc34)cc1)cn2[C@@H]1O[C@H](CO)[C@@H](O)[C@H]1O | 32 µM (≈ 16 µg/mL)
